The source of these data is ChEMBL document CHEMBL3137381, “MMV Box Onchocerca lienalis screening set”.

Type in all cases: functional
Experiment [1] concerns Onchocerca lienalis. The experiment can be described thus: MMV: Percent motility assay at a compound concentration of 1.25e-5 M. Activity score legend: 3: Active, 2: Moderately active; 1: Inactive, 0: Toxic. Particulars: at 12.5 µM.
The test system of experiment [2] is Onchocerca lienalis. The experiment can be described thus: MMV: Percent motility assay at a compound concentration of 3.1e-6 M. Activity score legend: 3: Active, 2: Moderately active; 1: Inactive, 0: Toxic. Particulars: at 3.1 µM.
In experiment [3] the test system is Onchocerca lienalis. The experiment can be described thus: MMV: Percent motility assay at a compound concentration of 1.9e-7 M. Activity score legend: 3: Active, 2: Moderately active; 1: Inactive, 0: Toxic. The following applies: at 0.19 µM.
Experiment [4] concerns Onchocerca lienalis. Description: MMV: Percent motility assay at a compound concentration of 7.8e-7 M. Activity score legend: 3: Active, 2: Moderately active; 1: Inactive, 0: Toxic. The following applies: at 0.78 µM.

Each structure is given as a SMILES string.

As to `CN1CCN(c2ccc(Nc3c4ccccc4nc4ccccc34)cc2)CC1`, the Motility in the experiment with Onchocerca lienalis [1], with Onchocerca lienalis [2], with Onchocerca lienalis [3] and with Onchocerca lienalis [4] was 100% throughout.
Turning to `CCN1CCCC1CNc1[nH]cnc2c3cc(Cl)ccc3nc1-2` (stereo not drawn), the Motility with Onchocerca lienalis [1], in the experiment with Onchocerca lienalis [2], with Onchocerca lienalis [3] and in the experiment with Onchocerca lienalis [4] was 100% in each case.
Regarding `C[n+]1c2ccccc2nc2ccc(NCCO)cc21`, the Motility with Onchocerca lienalis [1], in the experiment with Onchocerca lienalis [2], in the experiment with Onchocerca lienalis [3] and in the experiment on Onchocerca lienalis [4] was 100% in each case.
For the compound `CCN(CC)CCNc1ncnc2c1[nH]c1ccc(Cl)cc12`, the Motility in the experiment on Onchocerca lienalis [1], with Onchocerca lienalis [2], with Onchocerca lienalis [3] and in the experiment on Onchocerca lienalis [4] was 100% each time.
As for `CCOC(=O)c1cnc2ccc(CC)cc2c1O`, the Motility in the experiment with Onchocerca lienalis [1], in the experiment with Onchocerca lienalis [2], in the experiment with Onchocerca lienalis [3] and in the experiment on Onchocerca lienalis [4] was 100% in each case.
For the compound `Cc1ccc(-c2cc3c(nn2)-c2ccccc2C3=O)cc1`, the Motility in the experiment with Onchocerca lienalis [1], in the experiment on Onchocerca lienalis [2], in the experiment on Onchocerca lienalis [3] and in the experiment with Onchocerca lienalis [4] was 100% each time.
`CCN(CC)CCNc1ccnc2cc(Cl)ccc12`: the Motility with Onchocerca lienalis [1], in the experiment with Onchocerca lienalis [2], in the experiment with Onchocerca lienalis [3] and in the experiment on Onchocerca lienalis [4] was 100% throughout.
Regarding `Cc1ccc(Nc2nc(-c3ccccn3)cs2)cc1`, the Motility in the experiment with Onchocerca lienalis [1], with Onchocerca lienalis [2], with Onchocerca lienalis [3] and with Onchocerca lienalis [4] was 100% throughout.
As to `COc1ccc(-n2ccnc2SCC(=O)Nc2cc(C)ccc2C)c(OC)c1`, the Motility with Onchocerca lienalis [1], with Onchocerca lienalis [2], with Onchocerca lienalis [3] and in the experiment with Onchocerca lienalis [4] was 100% each time.
As to `CCN1CCN(Cc2ccc(NC(=O)c3cc4ccc5cccnc5c4[nH]3)cc2)CC1`, the Motility with Onchocerca lienalis [1], in the experiment on Onchocerca lienalis [2], in the experiment on Onchocerca lienalis [3] and in the experiment with Onchocerca lienalis [4] was 100% in each case.
As to `CCC(c1ccccc1)c1nn2c(-c3cccs3)nnc2s1` (stereo not drawn), the Motility in the experiment on Onchocerca lienalis [1], in the experiment with Onchocerca lienalis [2], in the experiment on Onchocerca lienalis [3] and in the experiment on Onchocerca lienalis [4] was 100% in each case.
As for `CCOc1cc2c(cc1OCC)C(c1cc(OC)c(O)cc1Cl)NCC2` (stereo not drawn), the Motility in the experiment with Onchocerca lienalis [1], with Onchocerca lienalis [2], in the experiment on Onchocerca lienalis [3] and with Onchocerca lienalis [4] was 100% each time.
In the case of `CC1CN(C(=O)c2sc3ccccc3c2Cl)CC(C)O1` (stereo not drawn), the Motility in the experiment on Onchocerca lienalis [1], in the experiment with Onchocerca lienalis [2], in the experiment with Onchocerca lienalis [3] and in the experiment on Onchocerca lienalis [4] was 100% throughout.
Consider `CN(C)c1ccc(C=Cc2nc(=O)c3ccccc3o2)cc1`, for which the Motility with Onchocerca lienalis [1], in the experiment with Onchocerca lienalis [2], in the experiment on Onchocerca lienalis [3] and in the experiment on Onchocerca lienalis [4] was 100% throughout.
Turning to `OC(CNC1CCCCC1)Cn1c2ccccc2c2ccccc21` (stereo not drawn), the Motility with Onchocerca lienalis [1] was 60%; with Onchocerca lienalis [2], 100%; in the experiment with Onchocerca lienalis [3], 100%; in the experiment with Onchocerca lienalis [4], 100%.
On to `COc1cccc(C=Cc2nc(=O)c3ccccc3o2)c1OC`, for which the Motility in the experiment with Onchocerca lienalis [1], with Onchocerca lienalis [2], with Onchocerca lienalis [3] and with Onchocerca lienalis [4] was 100% in each case.
For `CCCN(CCC)CC(O)COc1ccccc1C(=O)Nc1ccccc1` (stereo not drawn), the Motility in the experiment on Onchocerca lienalis [1], in the experiment with Onchocerca lienalis [2], in the experiment with Onchocerca lienalis [3] and in the experiment on Onchocerca lienalis [4] was 100% each time.
Turning to `COc1ccc(C(=O)Nc2nonc2-c2ccc(OC)c(OC)c2)cc1Cl`, the Motility in the experiment with Onchocerca lienalis [1], in the experiment with Onchocerca lienalis [2], in the experiment on Onchocerca lienalis [3] and in the experiment with Onchocerca lienalis [4] was 100% each time.
In the case of `COc1ccc(NC(=O)C2c3ccccc3C(=O)N(CC(C)C)C2c2cccs2)cc1Cl` (stereo not drawn), the Motility in the experiment on Onchocerca lienalis [1], in the experiment with Onchocerca lienalis [2], in the experiment on Onchocerca lienalis [3] and in the experiment with Onchocerca lienalis [4] was 100% each time.
With `CCOC(=O)c1c(C)n(-c2ccc(Cl)cc2)c2ccc(OC(=O)C=Cc3ccccc3)cc12`, the Motility with Onchocerca lienalis [1], in the experiment on Onchocerca lienalis [2], with Onchocerca lienalis [3] and in the experiment on Onchocerca lienalis [4] was 100% each time.
As for `COc1ccc2c(c1)OC(O)(C(F)(F)C(F)(F)F)CC2=O` (stereo not drawn), the Motility in the experiment with Onchocerca lienalis [1], in the experiment with Onchocerca lienalis [2], with Onchocerca lienalis [3] and with Onchocerca lienalis [4] was 100% in each case.
Turning to `CCOc1cc(Cl)c(C(C)NC(=O)c2ccccc2)cc1OCC` (stereo not drawn), the Motility in the experiment with Onchocerca lienalis [1], in the experiment with Onchocerca lienalis [2], with Onchocerca lienalis [3] and in the experiment on Onchocerca lienalis [4] was 100% in each case.
Regarding `C=CC12CCN(CC1)C(C(O)c1ccnc3ccc(OC)cc13)C2.Cl` (stereo not drawn), the Motility in the experiment with Onchocerca lienalis [1], in the experiment on Onchocerca lienalis [2], in the experiment with Onchocerca lienalis [3] and in the experiment on Onchocerca lienalis [4] was 100% throughout.
With `Cc1ccc(-c2cc3nc4c(c(O)n3n2)CCCC4)cc1`, the Motility in the experiment with Onchocerca lienalis [1], in the experiment with Onchocerca lienalis [2], in the experiment with Onchocerca lienalis [3] and in the experiment with Onchocerca lienalis [4] was 100% each time.
As for `c1ccc2cc3c(Nc4ccc(N5CCOCC5)cc4)ccnc3cc2c1`, the Motility with Onchocerca lienalis [1], with Onchocerca lienalis [2], in the experiment with Onchocerca lienalis [3] and with Onchocerca lienalis [4] was 100% in each case.
For `Cc1cc(C)c2c(c1)OCN(Cc1ccccc1Cl)C2`, the Motility with Onchocerca lienalis [1], in the experiment with Onchocerca lienalis [2], with Onchocerca lienalis [3] and with Onchocerca lienalis [4] was 100% throughout.
Turning to `COc1ccccc1NC1=C(N2CCCCC2)C(=O)c2ccccc2C1=O`, the Motility in the experiment on Onchocerca lienalis [1], in the experiment on Onchocerca lienalis [2], in the experiment on Onchocerca lienalis [3] and in the experiment on Onchocerca lienalis [4] was 100% in each case.
On to `CCOC(=O)c1cn(CC)c2cc(N3CCCCC3)c(F)cc2c1=O`, for which the Motility in the experiment on Onchocerca lienalis [1], in the experiment with Onchocerca lienalis [2], with Onchocerca lienalis [3] and in the experiment on Onchocerca lienalis [4] was 100% each time.
Take `CCCc1cc(O)c2c3c(c(=O)oc2c1)CN(C)CC3`: the Motility in the experiment on Onchocerca lienalis [1] was found to be 66.6%; in the experiment with Onchocerca lienalis [2], 100%; in the experiment on Onchocerca lienalis [3], 100%; in the experiment on Onchocerca lienalis [4] it was 100%.
Regarding `Cc1cc(NC(=O)C2c3ccccc3C(=O)N(CC(C)C)C2c2cccs2)no1` (stereo not drawn), the Motility in the experiment with Onchocerca lienalis [1], in the experiment on Onchocerca lienalis [2], in the experiment on Onchocerca lienalis [3] and in the experiment on Onchocerca lienalis [4] was 100% in each case.
On to `CCn1c(SCC(=O)Nc2cc(C(F)(F)F)ccc2Cl)nc2ccccc2c1=O`, for which the Motility in the experiment with Onchocerca lienalis [1], in the experiment with Onchocerca lienalis [2], in the experiment on Onchocerca lienalis [3] and in the experiment with Onchocerca lienalis [4] was 100% in each case.
As to `O=C(Nc1ccc(Cl)cc1C(=O)Nc1ccncc1)c1ccc(Cl)cc1Cl`, the Motility in the experiment on Onchocerca lienalis [1], in the experiment with Onchocerca lienalis [2], in the experiment on Onchocerca lienalis [3] and in the experiment with Onchocerca lienalis [4] was 100% in each case.
With `CCOc1ccc(-c2nonc2NC(=O)c2cccc(C)c2)cc1OCC`, the Motility in the experiment on Onchocerca lienalis [1], in the experiment with Onchocerca lienalis [2], in the experiment with Onchocerca lienalis [3] and in the experiment on Onchocerca lienalis [4] was 100% in each case.
Take `COc1ccc(-c2nc3cc(Cc4ccc5[nH]c(-c6ccc(OC)cc6)nc5c4)ccc3[nH]2)cc1`: the Motility stood at 80% with Onchocerca lienalis [1], 100% in the experiment on Onchocerca lienalis [2], 100% with Onchocerca lienalis [3] and 100% with Onchocerca lienalis [4].
As for `CCOC(=O)c1ccc2nc(-c3ccccc3)cc(O)c2c1`, the Motility in the experiment with Onchocerca lienalis [1], in the experiment on Onchocerca lienalis [2], in the experiment with Onchocerca lienalis [3] and in the experiment with Onchocerca lienalis [4] was 100% each time.
Consider `Cc1cc(Nc2ccc(Cl)cc2)n2nc(C(F)(F)F)nc2n1`, for which the Motility in the experiment on Onchocerca lienalis [1], in the experiment on Onchocerca lienalis [2], with Onchocerca lienalis [3] and in the experiment with Onchocerca lienalis [4] was 100% each time.
In the case of `CCCCCCOC(=O)C1=C(C)NC(=O)NC1c1ccccc1F` (stereo not drawn), the Motility in the experiment on Onchocerca lienalis [1] was 6%; in the experiment on Onchocerca lienalis [2], 100%; in the experiment with Onchocerca lienalis [3] it was 100%; with Onchocerca lienalis [4], 100%.
Take `Cc1ccc(N2C3c4ccccc4N(S(=O)(=O)c4ccc(C)cc4)C2c2ccccc2N3S(=O)(=O)c2ccc(C)cc2)cc1`: the Motility in the experiment on Onchocerca lienalis [1], with Onchocerca lienalis [2], in the experiment on Onchocerca lienalis [3] and in the experiment on Onchocerca lienalis [4] was 100% throughout.
Turning to `Cc1ccc(Nc2nc(NCCO)c3ccccc3n2)cc1C`, the Motility with Onchocerca lienalis [1] was 33.33%; in the experiment with Onchocerca lienalis [2], 100%; in the experiment with Onchocerca lienalis [3], 100%; in the experiment on Onchocerca lienalis [4], 100%.
For the compound `CC1CCCCN1CCCNC(=O)c1ccc2c(c1)sc1nc(-c3ccc(F)cc3)cn12` (stereo not drawn), the Motility came to 80% with Onchocerca lienalis [1], 100% in the experiment with Onchocerca lienalis [2], 100% in the experiment on Onchocerca lienalis [3] and 100% in the experiment on Onchocerca lienalis [4].
With `COc1ccc(NC(=O)C2c3ccccc3C(=O)N(CC(C)C)C2c2cccs2)cc1` (stereo not drawn), the Motility in the experiment on Onchocerca lienalis [1], in the experiment on Onchocerca lienalis [2], with Onchocerca lienalis [3] and in the experiment with Onchocerca lienalis [4] was 100% in each case.
With `c1ccc(Cn2c(N=Nc3c(Nc4ccccc4)ccc4ccccc34)nc3ccccc32)cc1`, the Motility in the experiment on Onchocerca lienalis [1], in the experiment with Onchocerca lienalis [2], in the experiment on Onchocerca lienalis [3] and with Onchocerca lienalis [4] was 100% in each case.
